Measurements from ChEMBL document CHEMBL4190187, “Discovery of pyrazolopyrimidine derivatives as novel inhibitors of ataxia telangiectasia and rad3 related protein (ATR)” (Bioorg Med Chem Lett, 2017).
Where “and” joins values, the source holds several entries; their conditions need not be identical. Identical values can stand only once.

Experiments:
[1] = target: Serine/threonine-protein kinase ATR (Homo sapiens, UniProt Q13535); experiment: Inhibition of human recombinant FLAG-tagged full length ATR expressed in mammalian cell line co-expressing human recombinant cMyc-tagged full length ATRIP
Serine/threonine-protein kinase ATR, sequence (Q13535 whole entry): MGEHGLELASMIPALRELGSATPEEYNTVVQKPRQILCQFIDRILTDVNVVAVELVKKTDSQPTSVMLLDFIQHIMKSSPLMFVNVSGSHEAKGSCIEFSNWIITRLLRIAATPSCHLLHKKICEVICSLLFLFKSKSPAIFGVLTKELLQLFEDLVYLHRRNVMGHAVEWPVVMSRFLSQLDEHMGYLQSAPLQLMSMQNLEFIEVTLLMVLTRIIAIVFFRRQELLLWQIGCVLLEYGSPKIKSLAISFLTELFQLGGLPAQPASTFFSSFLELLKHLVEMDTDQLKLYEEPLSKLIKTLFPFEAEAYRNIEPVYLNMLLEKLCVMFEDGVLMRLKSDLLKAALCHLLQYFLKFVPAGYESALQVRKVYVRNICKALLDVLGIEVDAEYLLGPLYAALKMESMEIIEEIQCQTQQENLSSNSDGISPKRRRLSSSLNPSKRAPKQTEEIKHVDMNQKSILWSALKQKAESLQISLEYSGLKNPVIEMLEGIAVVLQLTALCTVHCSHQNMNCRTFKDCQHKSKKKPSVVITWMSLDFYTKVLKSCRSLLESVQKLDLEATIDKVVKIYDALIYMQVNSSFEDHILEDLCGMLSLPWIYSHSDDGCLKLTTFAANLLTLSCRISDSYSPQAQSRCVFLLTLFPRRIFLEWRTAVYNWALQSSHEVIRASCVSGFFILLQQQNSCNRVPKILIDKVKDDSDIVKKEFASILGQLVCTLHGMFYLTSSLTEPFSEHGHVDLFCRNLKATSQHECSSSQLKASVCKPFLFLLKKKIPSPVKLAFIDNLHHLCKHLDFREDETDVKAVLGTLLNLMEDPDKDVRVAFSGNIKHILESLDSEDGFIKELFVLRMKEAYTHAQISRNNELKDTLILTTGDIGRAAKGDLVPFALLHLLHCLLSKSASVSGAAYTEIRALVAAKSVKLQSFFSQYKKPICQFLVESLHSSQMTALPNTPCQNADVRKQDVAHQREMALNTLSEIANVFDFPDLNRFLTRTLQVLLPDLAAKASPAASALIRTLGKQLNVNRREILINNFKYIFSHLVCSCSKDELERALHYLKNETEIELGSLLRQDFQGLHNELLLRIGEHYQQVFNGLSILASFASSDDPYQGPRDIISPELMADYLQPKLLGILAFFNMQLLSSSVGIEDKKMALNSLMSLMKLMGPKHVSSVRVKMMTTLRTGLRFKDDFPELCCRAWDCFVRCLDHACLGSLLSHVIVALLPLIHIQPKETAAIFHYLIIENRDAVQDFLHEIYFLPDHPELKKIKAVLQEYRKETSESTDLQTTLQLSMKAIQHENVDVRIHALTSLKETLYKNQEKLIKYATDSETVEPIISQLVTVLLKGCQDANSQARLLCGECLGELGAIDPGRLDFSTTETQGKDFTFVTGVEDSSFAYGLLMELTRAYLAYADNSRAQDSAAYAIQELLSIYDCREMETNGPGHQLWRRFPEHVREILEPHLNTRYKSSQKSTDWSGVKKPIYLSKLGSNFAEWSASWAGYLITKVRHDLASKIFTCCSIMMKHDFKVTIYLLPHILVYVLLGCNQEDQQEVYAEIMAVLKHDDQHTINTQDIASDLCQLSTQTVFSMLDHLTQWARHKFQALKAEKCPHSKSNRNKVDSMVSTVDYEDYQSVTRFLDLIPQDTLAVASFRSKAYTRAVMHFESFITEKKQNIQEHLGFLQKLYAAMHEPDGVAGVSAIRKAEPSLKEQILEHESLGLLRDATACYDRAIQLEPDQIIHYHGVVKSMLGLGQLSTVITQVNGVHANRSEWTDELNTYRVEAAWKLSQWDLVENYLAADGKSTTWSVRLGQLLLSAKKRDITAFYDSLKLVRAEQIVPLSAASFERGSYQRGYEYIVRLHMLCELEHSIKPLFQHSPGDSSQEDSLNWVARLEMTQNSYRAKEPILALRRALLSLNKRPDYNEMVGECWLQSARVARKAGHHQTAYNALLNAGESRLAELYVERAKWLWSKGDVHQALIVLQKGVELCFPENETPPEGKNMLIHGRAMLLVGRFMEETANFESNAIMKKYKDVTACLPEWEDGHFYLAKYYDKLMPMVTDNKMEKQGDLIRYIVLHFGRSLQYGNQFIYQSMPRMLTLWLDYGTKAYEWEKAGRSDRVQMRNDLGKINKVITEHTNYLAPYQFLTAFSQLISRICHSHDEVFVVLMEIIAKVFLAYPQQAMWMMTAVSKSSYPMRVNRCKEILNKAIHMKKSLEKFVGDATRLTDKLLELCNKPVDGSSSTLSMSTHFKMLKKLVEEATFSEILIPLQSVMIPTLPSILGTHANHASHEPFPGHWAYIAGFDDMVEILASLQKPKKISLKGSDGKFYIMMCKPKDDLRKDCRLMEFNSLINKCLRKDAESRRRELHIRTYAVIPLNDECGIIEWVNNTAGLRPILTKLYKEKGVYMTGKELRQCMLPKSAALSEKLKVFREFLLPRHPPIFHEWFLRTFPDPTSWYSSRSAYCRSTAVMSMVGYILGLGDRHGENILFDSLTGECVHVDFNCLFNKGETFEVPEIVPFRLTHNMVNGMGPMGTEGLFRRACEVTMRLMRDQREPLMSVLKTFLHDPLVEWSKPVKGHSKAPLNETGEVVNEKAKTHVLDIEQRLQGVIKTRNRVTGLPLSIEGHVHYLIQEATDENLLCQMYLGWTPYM

[2] = target: T1, Tyrosine-protein kinase BTK (Homo sapiens, UniProt Q06187); experiment: Inhibition of BTK (unknown origin) at 100 nM
T1 sequence (Q06187 whole entry, canonical isoform): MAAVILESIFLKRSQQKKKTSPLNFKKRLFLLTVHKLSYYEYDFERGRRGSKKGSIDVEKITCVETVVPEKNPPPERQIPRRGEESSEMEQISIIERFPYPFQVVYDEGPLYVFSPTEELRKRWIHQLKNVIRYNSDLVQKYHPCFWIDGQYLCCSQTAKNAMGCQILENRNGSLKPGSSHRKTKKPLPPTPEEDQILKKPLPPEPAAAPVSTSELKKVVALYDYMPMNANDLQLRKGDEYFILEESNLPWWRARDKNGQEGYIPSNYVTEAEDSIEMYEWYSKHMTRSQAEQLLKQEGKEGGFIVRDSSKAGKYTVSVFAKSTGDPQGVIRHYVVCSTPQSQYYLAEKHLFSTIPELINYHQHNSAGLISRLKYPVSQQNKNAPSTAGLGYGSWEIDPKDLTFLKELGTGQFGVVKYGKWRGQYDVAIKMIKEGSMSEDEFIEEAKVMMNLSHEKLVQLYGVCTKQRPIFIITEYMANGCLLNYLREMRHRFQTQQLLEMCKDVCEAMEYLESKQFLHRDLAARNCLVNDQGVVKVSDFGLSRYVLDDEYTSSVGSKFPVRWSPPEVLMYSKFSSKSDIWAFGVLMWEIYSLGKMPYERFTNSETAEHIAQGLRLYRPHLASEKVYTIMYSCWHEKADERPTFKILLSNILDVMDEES

[3] = target: Phosphatidylinositol 4,5-bisphosphate 3-kinase catalytic subunit delta isoform (Homo sapiens) (UniProt O00329); experiment: Inhibition of PI3Kdelta (unknown origin) at 100 nM
Phosphatidylinositol 4,5-bisphosphate 3-kinase catalytic subunit delta isoform (Homo sapiens), sequence (O00329 whole entry, canonical isoform): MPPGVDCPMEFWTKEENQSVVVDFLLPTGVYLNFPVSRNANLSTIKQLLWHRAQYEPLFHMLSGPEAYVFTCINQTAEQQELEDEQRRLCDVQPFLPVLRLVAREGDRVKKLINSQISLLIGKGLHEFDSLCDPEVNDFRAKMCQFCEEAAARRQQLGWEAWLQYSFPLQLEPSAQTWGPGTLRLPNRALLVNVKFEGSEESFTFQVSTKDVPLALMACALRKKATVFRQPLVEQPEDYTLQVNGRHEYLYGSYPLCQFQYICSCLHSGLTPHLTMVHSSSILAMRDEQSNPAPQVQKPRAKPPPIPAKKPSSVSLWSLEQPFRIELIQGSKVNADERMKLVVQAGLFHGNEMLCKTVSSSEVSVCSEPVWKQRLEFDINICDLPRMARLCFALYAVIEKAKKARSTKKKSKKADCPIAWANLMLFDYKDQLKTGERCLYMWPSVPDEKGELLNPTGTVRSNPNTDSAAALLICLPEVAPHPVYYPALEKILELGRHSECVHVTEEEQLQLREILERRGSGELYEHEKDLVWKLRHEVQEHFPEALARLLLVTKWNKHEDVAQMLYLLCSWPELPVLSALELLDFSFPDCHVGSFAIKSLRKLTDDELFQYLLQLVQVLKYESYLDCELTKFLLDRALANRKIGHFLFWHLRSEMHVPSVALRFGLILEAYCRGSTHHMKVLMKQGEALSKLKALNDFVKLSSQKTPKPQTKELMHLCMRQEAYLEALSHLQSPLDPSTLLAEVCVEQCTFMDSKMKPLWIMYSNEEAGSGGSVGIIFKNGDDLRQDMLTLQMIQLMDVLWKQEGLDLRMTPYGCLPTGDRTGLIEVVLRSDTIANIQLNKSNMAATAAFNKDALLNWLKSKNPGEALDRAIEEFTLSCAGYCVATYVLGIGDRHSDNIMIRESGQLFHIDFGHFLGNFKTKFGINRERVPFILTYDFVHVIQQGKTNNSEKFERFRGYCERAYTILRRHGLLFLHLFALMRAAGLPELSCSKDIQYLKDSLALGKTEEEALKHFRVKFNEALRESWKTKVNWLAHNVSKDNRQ

[4] = Metabolic stability in rat liver microsomes assessed as compound remaining at 1 uM in presence of NADPH as cofactor measured after 30 mins by LC-MS/MS method; format: ADME, microsome; conditions: read-out: Stability
[5] = Metabolic stability in human liver microsomes assessed as compound remaining at 1 uM in presence of NADPH as cofactor measured after 30 mins by LC-MS/MS method; format: ADME, microsome; conditions: read-out: Stability
[6] = Metabolic stability in mouse liver microsomes assessed as compound remaining at 1 uM in presence of NADPH as cofactor measured after 30 mins by LC-MS/MS method; format: ADME, microsome; conditions: read-out: Stability
[7] = target: Phosphatidylinositol 4,5-bisphosphate 3-kinase catalytic subunit delta isoform (Homo sapiens, UniProt O00329); experiment: Inhibition of PI3Kdelta (unknown origin)
Phosphatidylinositol 4,5-bisphosphate 3-kinase catalytic subunit delta isoform, sequence (O00329 whole entry, canonical isoform): as above

[8] = target: T1, Tyrosine-protein kinase BTK; experiment: Inhibition of BTK (unknown origin)

| Compound | IC50 [1] | further results |
| --- | --- | --- |
| Nc1ccnc2c1c(-c1cnc3[nH]ccc3c1)nn2C1CCc2ccccc2C1 (racemic) | > 30000 nM | – |
| Nc1ncnc2c1c(-c1ccc(Br)c(O)c1)nn2C1CCc2ccccc21 (configuration not stated) | 1860 nM | – |
| Nc1ncnc2c1c(-c1ccc3[nH]ccc3c1)nn2C1CCc2ccccc2C1 (racemic) | 1590 nM | – |
| Nc1ncnc2c1c(-c1cnc3[nH]ccc3c1)nn2C1CCc2ccccc2C1 (racemic) [listing 1 of 2 here] | – | inhibition [2]: 24%; inhibition [3]: 52% |
| Nc1ncnc2c1c(-c1c[nH]c3ncccc13)nn2C1CCc2ccccc2C1 (racemic) | > 30000 nM | – |
| Nc1nc2c(s1)CC(n1nc(-c3cnc4[nH]ccc4c3)c3c(N)ncnc31)CC2 (configuration not stated) | 547 nM and 269 nM | – |
| Nc1ccc(-c2nn(C3CCc4ccccc4C3)c3ncnc(N)c23)cn1 (racemic) | 19300 nM | – |
| Nc1ncnc2c1c(-c1ccc(N3CCCC3)nc1)nn2C1CCc2ccccc2C1 (racemic) | 19100 nM | – |
| Nc1ncnc2c1c(-c1cnc3cc[nH]c3c1)nn2C1CCc2ccccc2C1 (racemic) | 4620 nM | – |
| CS(=O)(=O)N1CCC(n2nc(-c3cnc4[nH]ccc4c3)c3c(N)ncnc32)CC1 | 1320 nM | – |
| c1ccc2c(c1)CCC(n1nc(-c3cnc4[nH]ccc4c3)c3cncnc31)C2 (racemic) | > 30000 nM | – |
| Nc1ncnc2c1c(-c1cnc3[nH]ccc3c1)nn2C1CCc2ccccc2C1 (stereo in doubt; 1) | 304 nM | – |
| Nc1ncnc2c1c(-c1ccc(Br)c(O)c1)nn2C1Cc2ccccc2C1 | 3560 nM | – |
| Nc1ncnc2c1c(-c1cnc3[nH]ccc3c1)nn2C1CCCC1 | 1420 nM | – |
| CNCc1ccc(-c2cc(-c3nc(-c4ccc(S(=O)(=O)C(C)C)cc4)cnc3N)on2)cc1 [BERZOSERTIB] | – | remaining at 0.5 h, 1 µM [4]: 80%; remaining at 0.5 h, 1 µM [5]: 71%; remaining at 0.5 h, 1 µM [6]: 77% |
| Nc1ncnc2c1c(-c1cnc3[nH]c(=O)ccc3c1)nn2C1CCc2ccccc2C1 (racemic) | 22400 nM | – |
| Nc1nc2c(s1)CC(n1nc(-c3cc(F)c4[nH]ccc4c3)c3c(N)ncnc31)CC2 (configuration not stated) | 2630 nM | IC50 [7]: 307 nM; IC50 [8]: 22 nM |
| Nc1ncnc2c1c(-c1cnc3[nH]ccc3c1)nn2C1CCc2ccccc2C1 (stereo in doubt; 1') | 158 nM | – |
| Nc1ncnc2c1c(-c1cccnc1)nn2C1CCc2ccccc2C1 (racemic) | > 30000 nM | – |
| Nc1ncnc2c1c(-c1cnc3[nH]ccc3c1)nn2C1CCc2ccccc2C1 (racemic) [listing 2 of 2 here] | 212 nM | – |
| Cn1ccc2cc(-c3nn(C4CCc5ccccc5C4)c4ncnc(N)c34)cnc21 (racemic) | 580 nM | – |
| Nc1ncnc2c1c(-c1cnc3[nH]ccc3c1)nn2C1Cc2ccccc2C1 | 654 nM | – |
